From US6300499A, “α1-adrenergic receptor antagonists” (Societe de Conseils de Recherches et d'Applications …, priority 1998, dated 2001)

How the values were obtained:
[1] = target: α1-adrenergic receptor; assay: Test of the bond to the α1-adrenergic receptor (inhibition of [3H]prazosin bond to rat cerebral cortex); assay type: binding, rat (male Sprague Dawley); details: [3H]prazosin 0.2 nM, rat cerebral cortex membranes, 30 min, 25° C., pH 7.7
Description: The cerebral cortices of male Sprague Dawley rats are homogenized at 4° C. in Tris-HCl 50 mM pH=7.7 and centrifuged at 50,000 g for 30 minutes at 4° C. The pellets are again suspended in the same buffer and centrifuged again at 50,000 g for 30 minutes at 4° C.
The filters are rinsed three times with the same buffer at 0-4° C. and their radioactivity is tested by liquid scintillation spectrometry.
The specific bonds are obtained by subtracting the non-specific bonds (determined in the presence of 10 μM of phentolamine (Sigma Chemical Co. St. Louis Mo.)) from the total bonds. The data relative to the bonds is analyzed by computer assisted iterative non-linear regression analysis, using the Ligand program (Munson, P. J., Rodbard, D. Anal. Biochem. 107:220 (1980)).

[2] = tested on: prostatic urethrae; assay: Urethra Contraction Test (inhibition of phenylephrine contraction of prostatic urethra); design: species or system rabbit (male New Zealand); details: inhibition of contraction of rabbit prostatic urethra, agonist phenylephrine, compound 30 min before
Description: The urethrae are removed from male New Zealand rabibits, and cleaned of the surrounding connective tissues. Bands of prostatic urethrae (3 mm wide, 10-15 mm long) are suspended (1 g tension) in organ baths containing 10 ml of physiological solution (pH 7.4) at 37° C. under an atmosphere of 95% O2 /5% CO2; NaCl (118 mM); KCl (4.7 mM); CaCl2 (2.5 mM); KH2 PO4 (1.2 mM); MgSO4 (1.2 mM); NaHCO3 (25 mM); glucose (11 mM). The contractile responses are measured using force displacement transducers coupled to a Gould 8000S polygraph. A one hour period of equilibration or equalization is provided before the experiment. After equalization, the preparations are sensitized by a submaximal concentration of phenylephrine. Forty five minutes after the sensitization, a concentration-effect curve for the phenylephrine is established. In order to determine the effect of the test compounds, different preparations originating from the same animal are used in parallel. One preparation serves as a control whilst the others receive a concentration of a test compound introduced into the bath 30 minutes before the phenylephrine (Auguet, M. et al. European J. Pharmacol. 217:153 (1995)).
The dissociation constants (Kb) of the test compounds are determined using the following equation: Kb =[B]/(dose ratio--1); in which [B] is the concentration of test compound and (dose ratio) is the EC50 of phenylephrine in the presence of the test compound divided by the EC50 of the control preparation. These resultats are then expressed as the negative logarithm of Kb. The values of the EC50 are calculated from the maximum contractile response to the phenylephrine by computer analysis using a linear regression over the average tension values. The maximum contractile response of each preparation which was subjected to the test compound is determined by comparing the response provoked by the application of the sensitizing concentration of phenylephrine with the response provoked in the control preparation (which has not received the test compounds).

[3] = tested on: aorta of the rat; assay: Test of the contraction of the aorta of the rat (phenylephrine); design: species or system rat (male Sprague Dawley); details: agonist phenylephrine, compound 60 min before
Description: (§1) The aorta and the portal vein are extracted from male Sprague Dawley rats (275-350 g, Charles River, France) after cervical dislocation and cleaned of the surrounding connective tissues. […] The contractile responses are measured using force displacement transducers either coupled to a Gould […] polygraph or connected to a data retrieval system ([…], France). A one hour period of equilibration or equalization is provided before the experiment. […] Seventy five minutes, after the sensitization, a concentration-effect curve for the phenylephrine is established. In order to determine the effect of the test compounds, different preparations are used in parallel. One preparation serves as a control whilst the others receive different test compounds introduced into the bath 60 minutes before the aministration of the phenylephrine. The results are expressed as averages ±S.E.M. or percentage of contraction. […] The EC50 values are calculated from the maximum contractile response by computer analysis using a linear regression over the average tension values.

[4] = tested on: portal vein of the rat; assay: Test of the contraction of the portal vein of the rat (phenylephrine); design: species or system rat (male Sprague Dawley)
Description: as §1

[5] = tested on: aorta of the rabbit; assay: Test of the contraction of the aorta of the rabbit (phenylephrine); design: species or system rabbit (male New Zealand); details: agonist phenylephrine, compound 60 min before
Description: (§2) The aorta and the portal vein are extracted from male New-Zealand rabbits (2.5-3.5 kg, Dombes Romans, France) after cervical dislocation and cleaned of the surrounding connective tissues. […] The contractile responses are measured using force displacement transducers coupled to a Gould RS3400 polygraph. A one hour period of equilibration or equalization is provided before the experiment. […] When the contraction provoked by the phenylephrine is stabilized, carbachol (10 μM) is administered with the aim of controlling the disorganisation of the endothelium in the vessels. Seventy five minutes after the sensitization, a concentration-effect curve for the phenylephrine is established. In order to determine the effect of the test compounds, different preparations are used in parallel. One preparation serves as a control whilst the others receive different concentrations of test compounds introduced into the bath 60 minutes before the phenylephrine. The results are expressed as averages ±S.E.M. or percentage of contraction. […] The EC50 values are calculated from the maximum contractile response by computer analysis using a linear regression over the average tension values.

[6] = tested on: portal vein of the rabbit; assay: Test of the contraction of the portal vein of the rabbit (phenylephrine); design: species or system rabbit (male New Zealand)
Description: as §2

[7] = tested on: saphenous vein of the rabbit; assay: Test of the contraction of the saphenous vein of the rabbit (phenylephrine); design: species or system rabbit (male New Zealand)
Description: The contractile responses are measured using force displacement transducers coupled to a Gould RS3400 polygraph. […] A one hour period of equilibration or equalization is provided before the experiment. During this equalization period, the tension of the venous rings is left to relax and the final tension is maintained at 0.5 g. After equalization, the preparations are sensitized by a submaximal concentration (3 μM) of phenylephrine. When the contraction triggered by the phenylephrine is stabilized, carbachol (10 μM) is administered in order to control the disorganisation of the endothelium in the vessels. Seventy five minutes after the sensitization, a concentration-effect curve for the phenylephrine is established. In order to determine the effect of the test compounds, different preparations are used in parallel. One preparation serves as a control whilst the others receive different test compounds introduced into the bath 60 minutes before the administration of the phenylephrine The results are expressed as averages ±S.E.M. or percentage of contraction. […] The EC50 values are calculated from the maximum contractile response by computer analysis using a linear regression over the average tension values.

Ki [1]: 13 nM
Compound: Cc1ccc(C)c(N2CCN(CCCNC(=O)[C@@](C)(O)c3ccccc3)CC2)c1 [Compound 45, S-(+)-N-[3-{4-(2,5-dimethylphenyl)-1-piperazinyl}-propyl]-α-hydroxy-α-methyl-benzeneacetamide]
-log Kb [2]: 8.3 | Kb [3]: 45 nM | Kb ([4]; rat portal vein, agonist phenylephrine, compound 60 min before): 1.4 nM | Selectivity Kb (Aorta)/Kb (Vein) ([4]; rat, aorta / portal vein): 32 | Kb [5]: 63 nM | Kb ([6]; rabbit portal vein, agonist phenylephrine, compound 60 min before): 1.6 nM | Selectivity Kb (Aorta)/Kb (Vein) ([6]; rabbit, aorta / portal vein): 40 | Kb ([7]; rabbit saphenous vein, agonist phenylephrine, compound 60 min before): 15 nM | Selectivity Kb (Salphenous vein)/Kb (Portal vein) ([7]; rabbit, saphenous vein / portal vein): 8.4
